Data as given in ChEMBL document CHEMBL1157596, “Colony stimulating factor-1 receptor as a target for small molecule inhibitors” (Bioorg Med Chem, 2010).

Legend:
Format in all cases: cell-based
Parameters in all cases: scale not given: the % may be the effect or the level left
[1] = target: Macrophage colony-stimulating factor 1 receptor (Homo sapiens) (UniProt P07333); experiment: Inhibition of CSF1-stimulated human FMS autophosphorylation expressed in growth factor dependent mouse FDC-P1 cells assessed as phosphorylated receptor level at 500 nM relative to control by Western blot
Chain of Macrophage colony-stimulating factor 1 receptor (Homo sapiens) (P07333 whole entry): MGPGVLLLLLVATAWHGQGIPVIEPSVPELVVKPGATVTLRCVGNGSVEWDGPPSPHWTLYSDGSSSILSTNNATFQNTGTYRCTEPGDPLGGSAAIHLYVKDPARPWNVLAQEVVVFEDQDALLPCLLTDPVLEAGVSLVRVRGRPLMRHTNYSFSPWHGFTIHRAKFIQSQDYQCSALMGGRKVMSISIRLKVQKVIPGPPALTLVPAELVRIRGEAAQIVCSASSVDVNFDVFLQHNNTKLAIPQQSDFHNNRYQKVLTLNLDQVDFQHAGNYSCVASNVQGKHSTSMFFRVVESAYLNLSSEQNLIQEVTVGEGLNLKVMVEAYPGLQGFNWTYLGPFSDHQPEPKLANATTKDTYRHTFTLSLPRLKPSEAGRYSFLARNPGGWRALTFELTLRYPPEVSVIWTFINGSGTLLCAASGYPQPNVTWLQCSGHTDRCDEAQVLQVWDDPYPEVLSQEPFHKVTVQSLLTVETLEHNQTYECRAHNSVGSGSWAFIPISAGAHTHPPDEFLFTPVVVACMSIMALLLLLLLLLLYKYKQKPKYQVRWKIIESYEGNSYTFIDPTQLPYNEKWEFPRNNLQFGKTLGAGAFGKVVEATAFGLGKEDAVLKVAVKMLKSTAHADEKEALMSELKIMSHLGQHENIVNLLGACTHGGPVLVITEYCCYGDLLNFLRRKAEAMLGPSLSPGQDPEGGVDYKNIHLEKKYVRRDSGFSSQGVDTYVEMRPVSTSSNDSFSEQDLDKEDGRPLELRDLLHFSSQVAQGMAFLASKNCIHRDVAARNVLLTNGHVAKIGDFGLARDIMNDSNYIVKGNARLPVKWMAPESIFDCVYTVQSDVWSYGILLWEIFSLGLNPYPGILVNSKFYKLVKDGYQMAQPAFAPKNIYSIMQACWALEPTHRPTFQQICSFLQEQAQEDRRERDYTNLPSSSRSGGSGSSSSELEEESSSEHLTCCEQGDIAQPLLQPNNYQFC

[2] = target: Macrophage colony-stimulating factor 1 receptor (Homo sapiens) (UniProt P07333); experiment: Inhibition of CSF1-stimulated human FMS autophosphorylation expressed in growth factor dependent mouse FDC-P1 cells assessed as phosphorylated receptor level at 50 nM relative to control by Western blot
[3] = target: Macrophage colony-stimulating factor 1 receptor (Homo sapiens) (UniProt P07333); experiment: Inhibition of CSF1-stimulated human FMS autophosphorylation expressed in growth factor dependent mouse FDC-P1 cells assessed as phosphorylated receptor level at 5 nM relative to control by Western blot
[4] = target: Macrophage colony-stimulating factor 1 receptor (Homo sapiens) (UniProt P07333); experiment: Inhibition of CSF1-stimulated human FMS autophosphorylation expressed in growth factor dependent mouse FDC-P1 cells assessed as phosphorylated receptor level at 1 nM relative to control by Western blot
[5] = target: Macrophage colony-stimulating factor 1 receptor (Homo sapiens) (UniProt P07333); experiment: Inhibition of CSF1-stimulated human FMS autophosphorylation expressed in growth factor dependent mouse FDC-P1 cells assessed as phosphorylated receptor level at 10 uM relative to control by Western blot
[6] = target: Macrophage colony-stimulating factor 1 receptor (Homo sapiens) (UniProt P07333); experiment: Inhibition of CSF1-stimulated human FMS autophosphorylation expressed in growth factor dependent mouse FDC-P1 cells assessed as phosphorylated receptor level at 3.3 uM relative to control by Western blot
[7] = target: Macrophage colony-stimulating factor 1 receptor (Homo sapiens) (UniProt P07333); experiment: Inhibition of CSF1-stimulated human FMS autophosphorylation expressed in growth factor dependent mouse FDC-P1 cells assessed as phosphorylated receptor level at 1.1 uM relative to control by Western blot
[8] = target: Macrophage colony-stimulating factor 1 receptor (Homo sapiens) (UniProt P07333); experiment: Inhibition of CSF1-stimulated human FMS autophosphorylation expressed in growth factor dependent mouse FDC-P1 cells assessed as phosphorylated receptor level at 0.33 uM relative to control by Western blot
[9] = target: Macrophage colony-stimulating factor 1 receptor (Homo sapiens) (UniProt P07333); experiment: Inhibition of CSF1-stimulated human FMS autophosphorylation expressed in growth factor dependent mouse FDC-P1 cells assessed as phosphorylated receptor level at 0.11 uM relative to control by Western blot
[10] = target: Macrophage colony-stimulating factor 1 receptor (Homo sapiens) (UniProt P07333); experiment: Inhibition of CSF1-stimulated human FMS autophosphorylation expressed in growth factor dependent mouse FDC-P1 cells assessed as phosphorylated receptor level at 31 nM relative to control by Western blot

`CO[C@@H]1[C@H](N(C)C(=O)c2ccccc2)C[C@H]2O[C@]1(C)n1c3ccccc3c3c4c(c5c6ccccc6n2c5c31)C(=O)NC4` showed an Activity [1] of 3%, an Activity [2] of 21% and an Activity [3] of 110%.
`C[C@]12O[C@H](C[C@]1(O)CO)n1c3ccccc3c3c4c(c5c6ccccc6n2c5c31)CNC4=O` was tested, and the Activity [4] was 85%.
In the case of `CN(C)S(=O)(=O)c1ccc2c(c1)/C(=C/c1cc3c([nH]1)CCCC3)C(=O)N2`, the Activity [5] is reported as 106%, the Activity [6] is reported as 97% and the Activity [7] is reported as 104%. For the same compound, the Activity [8] was 109% and the Activity [9] was 104%.
Compound `CCN(CC)CCNC(=O)c1c(C)[nH]c(/C=C2\C(=O)Nc3ccc(F)cc32)c1C` has an Activity [1] of 2%, an Activity [4] of 90% and an Activity [10] of 37%.
